# Experimental data as given in patent US8288371B2, “Ortho pyrrolidine, benzyl-substituted heterocycle CCR1 antagonists for autoimmune diseases and inflammation” (Pharmacopeia, LLC, priority 2007, dated 2012).
# pIC50: −log10 of the molar value.
# Molecular target: T1, human CCR1 (Homo sapiens, UniProt P32246)
# T1 sequence (P32246 1-355): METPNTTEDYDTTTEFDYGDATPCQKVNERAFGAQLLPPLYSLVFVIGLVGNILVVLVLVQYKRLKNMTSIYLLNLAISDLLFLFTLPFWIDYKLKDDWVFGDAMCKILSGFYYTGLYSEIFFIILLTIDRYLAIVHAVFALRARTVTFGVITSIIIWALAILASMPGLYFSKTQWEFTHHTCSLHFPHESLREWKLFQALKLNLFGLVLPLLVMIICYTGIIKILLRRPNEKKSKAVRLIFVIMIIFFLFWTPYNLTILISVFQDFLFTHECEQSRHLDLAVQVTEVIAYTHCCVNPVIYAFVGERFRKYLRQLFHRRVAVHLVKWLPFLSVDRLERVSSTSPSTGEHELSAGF
# Experiment: CCR1 binding protocol (SPA, [125I]-MIP-1α displacement)
# Conditions: cell membrane expressing human CCR1, 0.1 nM [125I]-MIP-1α, 4 hours at ambient temperature; read-out: Relative potency (IC50)
# Method in brief: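 Displacement of 0.1 nM [125I]-MIP-1α (final) from membranes expressing human CCR1 was measured by scintillation proximity after 4 h at ambient temperature. Conditions: pH 7.4 Tris buffer with 0.1% BSA and MnCl, and 0.5 μg membrane per well. Compounds were tested as a 10-step ½-log series from a 10 mM DMSO stock to derive IC50.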
row,pIC50,SMILES
1,5.30 to 6.30,Cc1cc(C)c(NC(=O)N2CCC[C@@H]2c2nnc(C)n2Cc2ccc(Cl)cc2)c(C(=O)O)c1 [Compound 254]
2,5.30 to 6.30,CSc1nc(Cl)cc(NC(=O)N2CCC[C@@H]2c2nnc(C)n2Cc2ccc(Cl)cc2)n1 [Compound 255]
3,5.30 to 6.30,Cc1cc(NC(=O)N2CCC[C@@H]2c2nnc(C)n2Cc2ccc(Cl)cc2)nc(C)n1 [Compound 256]
4,5.30 to 6.30,Cc1nnc([C@H]2CCCN2C(=C[N+](=O)[O-])Nc2ccc(C(F)(F)F)cc2)n1Cc1ccc(Cl)cc1 [Compound 257]
5,5.30 to 6.30,Cc1nnc([C@H]2CCCN2C(=O)Nc2ccncn2)n1Cc1ccc(Cl)cc1 [Compound 258]
6,> 7.30,Cc1noc(C)c1NC(=O)N1CCC[C@@H]1c1nnc(Cl)n1Cc1ccc(Cl)cc1 [Compound 259]
7,6.30 to 7.30,Cc1nnc([C@H]2CCCN2/C(=N\C#N)N[C@H]2CCOc3cc(C(F)(F)F)ccc32)n1Cc1ccc(Cl)cc1 [Compound 260]
8,6.30 to 7.30,Cc1nnc([C@H]2CCCN2C(=O)N[C@H]2CCCOc3ccccc32)n1Cc1ccc(Cl)cc1 [Compound 261]
9,5.30 to 6.30,Cc1nnc([C@H]2CCCN2C(=O)N[C@@H]2CC(C)(C)Oc3cc(C(F)(F)F)ccc32)n1Cc1ccc(Cl)cc1 [Compound 262]
10,> 7.30,Cc1nnc([C@H]2CCCN2C(=O)NC2(c3ccc(C(F)(F)F)cc3)CC2)n1Cc1ccc(Cl)cc1 [Compound 263]
11,5.30 to 6.30,Cc1nnc([C@H]2CCCN2C(=O)NC2(c3ccccc3C(F)(F)F)CC2)n1Cc1ccc(Cl)cc1 [Compound 264]
12,> 7.30,Cc1nnc([C@H]2CCCN2C(=O)NC2(c3cccc(C(F)(F)F)c3)CC2)n1Cc1ccc(Cl)cc1 [Compound 265]
13,> 7.30,Cc1nnc([C@H]2CCCN2C(=O)NC2(c3cccc(F)c3)CC2)n1Cc1ccc(Cl)cc1 [Compound 266]
14,6.30 to 7.30,Cc1nnc([C@H]2CCCN2C(=O)NC2CCCc3cccc(Cl)c32)n1Cc1ccc(Cl)cc1 (some centres unmarked) [Compound 267]
15,> 7.30,Cc1nnc([C@H]2CCCN2C(=O)N[C@H]2CC(C)(C)Oc3cc(C(F)(F)F)ccc32)n1Cc1ccc(Cl)cc1 [Compound 268]
16,6.30 to 7.30,Cc1ccc2c(c1)CCCC2NC(=O)N1CCC[C@@H]1c1nnc(C)n1Cc1ccc(Cl)cc1 (some centres unmarked) [Compound 269]
17,> 7.30,Cc1nnc([C@H]2CCCN2C(=O)NC2(c3ccc(F)cc3)CC2)n1Cc1ccc(Cl)cc1 [Compound 270]
18,> 7.30,Cc1nnc([C@H]2CCCN2C(=O)NC2(c3ccc(Cl)cc3)CC2)n1Cc1ccc(Cl)cc1 [Compound 271]
19,6.30 to 7.30,Cc1nnc([C@H]2CCCN2C(=O)NC2CC(C)(C)Oc3cc(C(F)(F)F)ccc32)n1Cc1ccc(Cl)cc1 (some centres unmarked) [Compound 272]
20,> 7.30,Cc1nnc([C@H]2CCCN2C(=O)NC2(c3ccccc3F)CC2)n1Cc1ccc(Cl)cc1 [Compound 273]
21,6.30 to 7.30,Cc1nnc([C@H]2CCCN2C(=O)Nc2ccc3c(c2)CC(C)O3)n1Cc1ccc(Cl)cc1 (some centres unmarked) [Compound 274]
22,> 7.30,Cc1nnc([C@H]2CCCN2C(=O)NC(C)(C)c2ccc(F)cc2)n1Cc1ccc(Cl)cc1 [Compound 275]
23,> 7.30,Cc1onc(-c2ccccc2Cl)c1NC(=O)N1CCC[C@@H]1c1nnc(C)n1Cc1ccc(Cl)cc1 [Compound 276]

row,pIC50,SMILES
1,6.30 to 7.30,Cc1nnc([C@H]2CCCN2C(=O)Nc2ccc(C(F)(F)F)cn2)n1Cc1ccc(Cl)cc1 [Compound 277]
2,> 7.30,Cc1nnc([C@H]2CCCN2C(=O)Nc2ccc(C(C)C)cc2C(F)(F)F)n1Cc1ccc(Cl)cc1 [Compound 278]
3,6.30 to 7.30,CNC(=O)c1cc(C)ccc1NC(=O)N1CCC[C@@H]1c1nnc(C)n1Cc1ccc(Cl)cc1 [Compound 279]
4,> 7.30,CC[C@H](NC(=O)N1CCC[C@@H]1c1nnc(C)n1Cc1ccc(Cl)cc1)c1cc2cc(C(F)(F)F)ccc2o1 [Compound 280]
5,> 7.30,Cc1cccnc1NC(=O)N1CCC[C@@H]1c1nnc(C)n1Cc1ccc(Cl)cc1 [Compound 281]
6,5.30 to 6.30,Cc1nnc([C@H]2CCCN2C(=O)Nc2cc(C(=O)O)ccc2F)n1Cc1ccc(Cl)cc1 [Compound 282]
7,6.30 to 7.30,CC(=O)N1CCC[C@@H](NC(=O)N2CCC[C@@H]2c2nnc(C)n2Cc2ccc(Cl)cc2)C1 [Compound 283]
8,> 7.30,COC(=O)c1ccc(F)c(NC(=O)N2CCC[C@@H]2c2nnc(C)n2Cc2ccc(Cl)cc2)c1 [Compound 284]
9,> 7.30,CC[C@@H](NC(=O)N1CCC[C@@H]1c1nnc(C)n1Cc1ccc(Cl)cc1)c1ccccc1 [Compound 285]
10,> 7.30,COC(=O)c1ccc(Cl)c(NC(=O)N2CCC[C@@H]2c2nnc(C)n2Cc2ccc(Cl)cc2)c1 [Compound 286]
11,> 7.30,CCc1noc(CC)c1NC(=O)N1CCC[C@@H]1c1nnc(C)n1Cc1ccc(Cl)cc1 [Compound 287]
12,> 7.30,Cc1cccc(-c2noc(C)c2NC(=O)N2CCC[C@@H]2c2nnc(C)n2Cc2ccc(Cl)cc2)c1 [Compound 288]
13,> 7.30,CCc1noc(C)c1NC(=O)N1CCC[C@@H]1c1nnc(C)n1Cc1ccc(Cl)cc1 [Compound 290]
14,> 7.30,Cc1onc(-c2ccccc2F)c1NC(=O)N1CCC[C@@H]1c1nnc(C)n1Cc1ccc(Cl)cc1 [Compound 291]
15,6.30 to 7.30,COC1CCC(NC(=O)N2CCC[C@@H]2c2nnc(C)n2Cc2ccc(Cl)cc2)CC1 (some centres unmarked) [Compound 292]
16,> 7.30,Cc1onc(-c2ccc(Cl)cc2)c1NC(=O)N1CCC[C@@H]1c1nnc(C)n1Cc1ccc(Cl)cc1 [Compound 293]
17,6.30 to 7.30,Cc1nnc([C@H]2CCCN2C(=O)Nc2cc(C(N)=O)ccc2F)n1Cc1ccc(Cl)cc1 [Compound 294]
18,6.30 to 7.30,Cc1ccc(NC(=O)N2CCC[C@@H]2c2nnc(C)n2Cc2ccc(Cl)cc2)c(C(=O)N(C)C)c1 [Compound 295]
19,> 7.30,Cc1cc(C)c(NC(=O)N2CCC[C@@H]2c2nnc(C)n2Cc2ccc(Cl)cc2)c(C)n1 [Compound 296]
20,> 7.30,Cc1onc(-c2ccc(F)cc2)c1NC(=O)N1CCC[C@@H]1c1nnc(C)n1Cc1ccc(Cl)cc1 [Compound 297]
21,5.30 to 6.30,Cc1nnc([C@H]2CCCN2C(=O)Nc2cc(C(=O)O)ccc2Cl)n1Cc1ccc(Cl)cc1 [Compound 298]
22,6.30 to 7.30,Cc1cnccc1NC(=O)N1CCC[C@@H]1c1nnc(C)n1Cc1ccc(Cl)cc1 [Compound 299]
23,6.30 to 7.30,Cc1cc(C(N)=O)ccc1NC(=O)N1CCC[C@@H]1c1nnc(C)n1Cc1ccc(Cl)cc1 [Compound 300]

row,pIC50,SMILES
1,6.30 to 7.30,CNC(=O)c1ccc(F)c(NC(=O)N2CCC[C@@H]2c2nnc(C)n2Cc2ccc(Cl)cc2)c1 [Compound 301]
2,6.30 to 7.30,Cc1nnc([C@H]2CCCN2C(=O)Nc2cc(C(=O)N(C)C)ccc2F)n1Cc1ccc(Cl)cc1 [Compound 302]
3,> 7.30,COc1ccc(-c2noc(C)c2NC(=O)N2CCC[C@@H]2c2nnc(C)n2Cc2ccc(Cl)cc2)cc1 [Compound 303]
4,> 7.30,Cc1onc(-c2ccncc2)c1NC(=O)N1CCC[C@@H]1c1nnc(C)n1Cc1ccc(Cl)cc1 [Compound 304]
5,5.30 to 6.30,CCOC1CCC(NC(=O)N2CCC[C@@H]2c2nnc(C)n2Cc2ccc(Cl)cc2)CC1 (some centres unmarked) [Compound 305]
6,> 7.30,Cc1onc(-c2cccnc2)c1NC(=O)N1CCC[C@@H]1c1nnc(C)n1Cc1ccc(Cl)cc1 [Compound 306]
7,> 7.30,Cc1nnc([C@H]2CCCN2C(=O)N[C@@H](C)c2cc3cc(Cl)ccc3o2)n1Cc1ccc(Cl)cc1 [Compound 307]
8,> 7.30,O=C(N[C@H]1CCOc2cc(C(F)(F)F)ccc21)N1CCC[C@@H]1c1nnc(CO)n1Cc1ccc(Cl)cc1 [Compound 308]
9,> 7.30,Cc1noc(-c2ccccc2)c1NC(=O)N1CCC[C@@H]1c1nnc(CO)n1Cc1ccc(Cl)cc1 [Compound 309]
10,6.30 to 7.30,O=C(Nc1ccc(Cl)cc1F)N1CCC[C@@H]1c1nnc(CO)n1Cc1ccc(Cl)cc1 [Compound 310]
11,6.30 to 7.30,CCc1nnc([C@H]2CCCN2C(=O)NCc2ccc(C(F)(F)F)cc2)n1Cc1ccc(Cl)cc1 [Compound 311]
12,> 7.30,O=C(NCc1ccc(C(F)(F)F)cc1)N1CCC[C@@H]1c1nnc(CO)n1Cc1ccc(Cl)cc1 [Compound 312]
13,> 7.30,O=C(NCc1ccc(Cl)cc1Cl)N1CCC[C@@H]1c1nnc(CO)n1Cc1ccc(Cl)cc1 [Compound 313]
14,6.30 to 7.30,CC[C@H](NC(=O)N1CCC[C@@H]1c1nnc(C)n1Cc1ccc(Cl)cc1)c1ccc(C(F)(F)F)c(F)c1 [Compound 314]
15,6.30 to 7.30,CNC(=O)c1ccc(Cl)c(NC(=O)N2CCC[C@@H]2c2nnc(C)n2Cc2ccc(Cl)cc2)c1 [Compound 315]
16,> 7.30,Cc1ccnc(C)c1NC(=O)N1CCC[C@@H]1c1nnc(C)n1Cc1ccc(Cl)cc1 [Compound 316]
17,6.30 to 7.30,COC(=O)c1ccc(C(F)(F)F)c(NC(=O)N2CCC[C@@H]2c2nnc(C)n2Cc2ccc(Cl)cc2)c1 [Compound 317]
18,> 7.30,COC(=O)c1cc(NC(=O)N2CCC[C@@H]2c2nnc(C)n2Cc2ccc(Cl)cc2)c(C)cc1C [Compound 318]
19,6.30 to 7.30,Cc1noc(C)c1N/C(=N/C#N)N1CCC[C@@H]1c1nnc(C)n1Cc1ccc(Cl)cc1 [Compound 319]
20,> 7.30,Cc1nn(C)c(C)c1NC(=O)N1CCC[C@@H]1c1nnc(C)n1Cc1ccc(Cl)cc1 [Compound 320]
21,6.30 to 7.30,Cc1nnc([C@H]2CCCN2C(=O)Nc2ccc3nonc3c2)n1Cc1ccc(Cl)cc1 [Compound 321]
22,> 7.30,Cc1ccc(C(C)(C)NC(=O)N2CCC[C@@H]2c2nnc(C)n2Cc2ccc(Cl)cc2)cc1 [Compound 322]
